Test results: patent US7582676B2, “2-phenylpyran-4-one derivatives as selective COX-2 inhibitors” (Laboratorios Almirall, S.A., priority 2003, dated 2009)

Key:
[1] = biological target: T1, COX-2 (Homo sapiens, UniProt P35354); test: COX-2 activity in human whole blood (PGE2, LPS induced); format: cell-based; conditions: for IC50: LPS 10 μg/ml, 24 h at 37° C., PGE2 by EIA; for Ratio COX-1/COX-2: ratio of COX-1/COX-2 IC50 values
T1 construct: in the presence of LPS (10 μg/ml) for 24 h at 37° C. in order to induce the COX-2 expression; endogenous in cells; host or cells: human whole blood of healthy volunteers, LPS-stimulated for 24 h; PGE2 read-out
T1 sequence (P35354 18-604): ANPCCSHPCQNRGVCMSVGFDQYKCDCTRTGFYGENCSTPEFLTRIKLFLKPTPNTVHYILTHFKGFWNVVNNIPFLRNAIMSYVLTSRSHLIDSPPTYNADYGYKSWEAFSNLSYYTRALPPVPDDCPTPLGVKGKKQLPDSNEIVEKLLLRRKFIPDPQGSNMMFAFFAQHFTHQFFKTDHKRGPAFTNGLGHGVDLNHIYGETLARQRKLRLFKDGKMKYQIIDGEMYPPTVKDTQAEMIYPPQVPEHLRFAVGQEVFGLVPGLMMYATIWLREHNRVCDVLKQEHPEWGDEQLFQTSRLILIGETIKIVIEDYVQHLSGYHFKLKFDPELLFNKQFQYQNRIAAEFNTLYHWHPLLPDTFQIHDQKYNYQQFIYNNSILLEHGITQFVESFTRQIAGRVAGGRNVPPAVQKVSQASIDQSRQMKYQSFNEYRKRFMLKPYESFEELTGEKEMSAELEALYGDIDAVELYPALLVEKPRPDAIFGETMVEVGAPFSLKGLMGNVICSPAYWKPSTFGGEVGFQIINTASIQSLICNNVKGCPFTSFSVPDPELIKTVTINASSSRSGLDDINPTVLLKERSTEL
Method: (§1) COX-1 and COX-2 Activities in Human Whole Blood
For the COX-2 activity determination, 500 μl aliquots of blood were incubated in the presence of LPS (10 μg/ml) for 24 h at 37° C. in order to induce the COX-2 expression (Patriagnani et al., J. Pharm. Exper. Ther. 271; 1705-1712 (1994)). Plasma was separated by centrifugation (10 min at 13000 rpm) and kept at −30° C. until PGE2 levels were measured using an enzyme immunoassay kit (EIA). […] IC50 values were obtained by non-linear regression using InPlot, GraphPad software on an IBM computer.

[2] = biological target: T2, COX-1 (Homo sapiens, UniProt P23219); test: COX-1 activity in human whole blood (TXB2, calcium ionophore A23187); format: cell-based; conditions: 24 h at 37° C., A23187 25 μM, TXB2 by EIA
T2 construct: Fresh blood from healthy volunteers; endogenous in cells; host or cells: human whole blood of healthy volunteers, stimulated with calcium ionophore A23187; TXB2 read-out
Method: as §1
Fresh blood from healthy volunteers who had not taken any non-steroidal anti-inflammatory drugs for at least 7 days prior to blood extraction was collected in heparinized tubes (20 units of heparin per ml). For the COX-1 activity determination, 500 μl aliquots of blood were incubated with either 5 μl vehicle (dimethylsulphoxide) or 5 μl of a test compound for 24 h at 37° C. Calcium ionophore A23187 (25 μM) was added 20 min before stopping the incubation. Plasma was separated by centrifugation (10 min at 13000 rpm) and kept at −30° C. until TXB2 levels were measured using an enzyme immunoassay kit (EIA).
The effect of the compounds was evaluated by incubating each compound at five to six different concentrations with triplicate determinations. IC50 values were obtained by non-linear regression using InPlot, GraphPad software on an IBM computer.

T2 sequence (P23219 24-599): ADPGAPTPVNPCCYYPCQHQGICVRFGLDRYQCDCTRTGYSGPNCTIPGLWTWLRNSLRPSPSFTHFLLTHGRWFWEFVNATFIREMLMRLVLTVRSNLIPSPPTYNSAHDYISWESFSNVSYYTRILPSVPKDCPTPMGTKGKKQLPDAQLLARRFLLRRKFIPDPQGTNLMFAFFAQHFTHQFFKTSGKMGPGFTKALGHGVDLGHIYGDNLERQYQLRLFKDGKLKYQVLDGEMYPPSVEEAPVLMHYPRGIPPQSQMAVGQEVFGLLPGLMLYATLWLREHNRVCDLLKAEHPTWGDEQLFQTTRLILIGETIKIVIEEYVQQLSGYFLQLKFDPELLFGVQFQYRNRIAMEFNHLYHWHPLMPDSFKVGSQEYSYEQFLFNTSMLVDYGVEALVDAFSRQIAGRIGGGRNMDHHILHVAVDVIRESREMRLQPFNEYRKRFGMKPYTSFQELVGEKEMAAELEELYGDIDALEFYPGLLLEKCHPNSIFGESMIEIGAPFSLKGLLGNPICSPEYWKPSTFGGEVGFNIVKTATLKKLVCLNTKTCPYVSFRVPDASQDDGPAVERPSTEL

Structure (SMILES)	IC50 [1] [nM]	Ratio COX-1/COX-2 [1]	IC50 [2] [nM]
Cc1cc(=O)c(Oc2ccc(F)cc2F)c(-c2ccc([S+](C)[O-])cc2)o1 (racemic) [Example 1, 3-(2,4-Difluorophenoxy)-6-methyl-2-[4-(methylsulfinyl)phenyl]-4H-pyran4-one]	960	104	
Cc1cc(=O)c(Oc2ccc(Br)cc2F)c(-c2ccc([S+](C)[O-])cc2)o1 (racemic) [Example 7, 3-(4-Bromo-2-fluorophenoxy)-6-methyl-2-[4-(methylsulfinyl)phenyl]-4H-pyran-4-one]	570	135	77000
Cc1cc(=O)c(Oc2ccc(F)cc2F)c(-c2ccc([S+](C)[O-])cc2)o1 (single isomer, unassigned; enantiomer 1a) [Example 2, 3-(2,4-Difluorophenoxy)-6-methyl-2-[4-(methylsulfinyl)phenyl]-4H-pyran-4-one-Enantiomer 1a]	2100	48	
Cc1cc(=O)c(Oc2ccc(F)cc2F)c(-c2ccc([S+](C)[O-])cc2)o1 (single isomer, unassigned; enantiomer 1b) [Example 3, 3-(2,4-Difluorophenoxy)-6-methyl-2-[4-(methylsulfinyl)phenyl]-4H-pyran4-one-Enantiomer 1b]	270	321	86600
Cc1cc(=O)c(Oc2ccc(Cl)cc2F)c(-c2ccc([S+](C)[O-])cc2)o1 (single isomer, unassigned; enantiomer 4a) [Example 5, 3-4-Chloro-2-fluorophonoxy)-6-methyl-2-[4-(methylsuffinyl)phenyl]-4H-pyran-4-one-Enantiomer 4a]			72900
Cc1cc(=O)c(Oc2ccc(Br)cc2F)c(-c2ccc([S+](C)[O-])cc2)o1 (single isomer, unassigned; enantiomer 7a) [Example 8, 3-4-Bromo-2-fluorophenoxy)-6-methyl-2-[4-methylsulfinyl)phenyl]-4H-pyran4-one-Enantiomer 7a]	1580	20	32100
Cc1cc(=O)c(Oc2ccc(Br)cc2F)c(-c2ccc([S+](C)[O-])cc2)o1 (single isomer, unassigned; enantiomer 7b) [Example 9, 3-4-Bromo-2-fluorophenoxy)-6-methyl-2-[4-(methylsulfinyl)phenyg]4H-pyran-4-one-Enantiomer 7b]	170	430	73100
